Test results reported in the NIST ThermoML archive (doi:10.1021/acs.jced.5b00051).
Numbers after ± are expanded uncertainties.

Assay: molar heat capacity at constant pressure
Details: 275.15 K; 101.33 kPa; Liquid; Large sample (1 g) DSC

| Structure (SMILES) | molar heat capacity at constant pressure |
| --- | --- |
| CCCCCCCCOCCOCCOCCO [2-[2-[2-(octyloxy)ethoxy]ethoxy]ethanol] | 563.7 ± 8.7 J/K/mol |
| CCCOCCO [2-propoxyethanol] | 231.6 ± 3.6 J/K/mol |
| COCCOCCOCCOCCO [3,6,9,12-tetraoxatridecanol] | 445.4 ± 6.9 J/K/mol |
| CCOCCOCCO [3,6-dioxa-1-octanol] | 296.5 ± 4.6 J/K/mol |
| CCCOCCOCCO [2-(2-propoxyethoxy)ethanol] | 321.3 ± 5 J/K/mol |
| CCCCOCCOCCO [3,6-dioxa-1-decanol] | 351.2 ± 5.4 J/K/mol |

Same assay, conditions: 277.15 K; 101.33 kPa; Liquid; Large sample (1 g) DSC

| Structure (SMILES) | molar heat capacity at constant pressure |
| --- | --- |
| CCCCCCCCOCCOCCOCCO [2-[2-[2-(octyloxy)ethoxy]ethoxy]ethanol] | 564.5 ± 8.7 J/K/mol |
| CCCOCCO [2-propoxyethanol] | 232.4 ± 3.6 J/K/mol |
| COCCOCCOCCOCCO [3,6,9,12-tetraoxatridecanol] | 445.6 ± 6.9 J/K/mol |
| CCOCCOCCO [3,6-dioxa-1-octanol] | 296.8 ± 4.6 J/K/mol |
| CCCOCCOCCO [2-(2-propoxyethoxy)ethanol] | 322 ± 5 J/K/mol |
| CCCCOCCOCCO [3,6-dioxa-1-decanol] | 351.9 ± 5.5 J/K/mol |

Same assay, conditions: 279.15 K; 101.33 kPa; Liquid; Large sample (1 g) DSC

| Structure (SMILES) | molar heat capacity at constant pressure |
| --- | --- |
| CCCCCCCCOCCOCCOCCO [2-[2-[2-(octyloxy)ethoxy]ethoxy]ethanol] | 565.2 ± 8.8 J/K/mol |
| CCCOCCO [2-propoxyethanol] | 233.3 ± 3.6 J/K/mol |
| COCCOCCOCCOCCO [3,6,9,12-tetraoxatridecanol] | 445.8 ± 6.9 J/K/mol |
| CCOCCOCCO [3,6-dioxa-1-octanol] | 297.2 ± 4.6 J/K/mol |
| CCCOCCOCCO [2-(2-propoxyethoxy)ethanol] | 322.6 ± 5 J/K/mol |
| CCCCOCCOCCO [3,6-dioxa-1-decanol] | 352.7 ± 5.5 J/K/mol |

Same assay, conditions: 281.15 K; 101.33 kPa; Liquid; Large sample (1 g) DSC

| Structure (SMILES) | molar heat capacity at constant pressure |
| --- | --- |
| CCCCCCCCOCCOCCOCCO [2-[2-[2-(octyloxy)ethoxy]ethoxy]ethanol] | 566 ± 8.8 J/K/mol |
| CCCOCCO [2-propoxyethanol] | 234.1 ± 3.6 J/K/mol |
| COCCOCCOCCOCCO [3,6,9,12-tetraoxatridecanol] | 446 ± 6.9 J/K/mol |
| CCOCCOCCO [3,6-dioxa-1-octanol] | 297.6 ± 4.6 J/K/mol |
| CCCOCCOCCO [2-(2-propoxyethoxy)ethanol] | 323.3 ± 5 J/K/mol |
| CCCCOCCOCCO [3,6-dioxa-1-decanol] | 353.4 ± 5.5 J/K/mol |

Same assay, conditions: 283.15 K; 101.33 kPa; Liquid; Large sample (1 g) DSC

| Structure (SMILES) | molar heat capacity at constant pressure |
| --- | --- |
| CCCCCCCCOCCOCCOCCO [2-[2-[2-(octyloxy)ethoxy]ethoxy]ethanol] | 566.9 ± 8.8 J/K/mol |
| CCCOCCO [2-propoxyethanol] | 235 ± 3.6 J/K/mol |
| COCCOCCOCCOCCO [3,6,9,12-tetraoxatridecanol] | 446.2 ± 6.9 J/K/mol |
| CCOCCOCCO [3,6-dioxa-1-octanol] | 298 ± 4.6 J/K/mol |
| CCCOCCOCCO [2-(2-propoxyethoxy)ethanol] | 324 ± 5 J/K/mol |
| CCCCOCCOCCO [3,6-dioxa-1-decanol] | 354.2 ± 5.5 J/K/mol |

Same assay, conditions: 285.15 K; 101.33 kPa; Liquid; Large sample (1 g) DSC

| Structure (SMILES) | molar heat capacity at constant pressure |
| --- | --- |
| CCCCCCCCOCCOCCOCCO [2-[2-[2-(octyloxy)ethoxy]ethoxy]ethanol] | 567.7 ± 8.8 J/K/mol |
| CCCOCCO [2-propoxyethanol] | 235.8 ± 3.7 J/K/mol |
| COCCOCCOCCOCCO [3,6,9,12-tetraoxatridecanol] | 446.5 ± 6.9 J/K/mol |
| CCOCCOCCO [3,6-dioxa-1-octanol] | 298.5 ± 4.6 J/K/mol |
| CCCOCCOCCO [2-(2-propoxyethoxy)ethanol] | 324.7 ± 5 J/K/mol |
| CCCCOCCOCCO [3,6-dioxa-1-decanol] | 354.9 ± 5.5 J/K/mol |

Same assay, conditions: 287.15 K; 101.33 kPa; Liquid; Large sample (1 g) DSC

| Structure (SMILES) | molar heat capacity at constant pressure |
| --- | --- |
| CCCCCCCCOCCOCCOCCO [2-[2-[2-(octyloxy)ethoxy]ethoxy]ethanol] | 568.6 ± 8.8 J/K/mol |
| CCCOCCO [2-propoxyethanol] | 236.6 ± 3.7 J/K/mol |
| COCCOCCOCCOCCO [3,6,9,12-tetraoxatridecanol] | 446.8 ± 6.9 J/K/mol |
| CCOCCOCCO [3,6-dioxa-1-octanol] | 298.9 ± 4.6 J/K/mol |
| CCCOCCOCCO [2-(2-propoxyethoxy)ethanol] | 325.4 ± 5 J/K/mol |
| CCCCOCCOCCO [3,6-dioxa-1-decanol] | 355.7 ± 5.5 J/K/mol |

Same assay, conditions: 289.15 K; 101.33 kPa; Liquid; Large sample (1 g) DSC

| Structure (SMILES) | molar heat capacity at constant pressure |
| --- | --- |
| CCCCCCCCOCCOCCOCCO [2-[2-[2-(octyloxy)ethoxy]ethoxy]ethanol] | 569.5 ± 8.8 J/K/mol |
| CCCOCCO [2-propoxyethanol] | 237.5 ± 3.7 J/K/mol |
| COCCOCCOCCOCCO [3,6,9,12-tetraoxatridecanol] | 447.1 ± 6.9 J/K/mol |
| CCOCCOCCO [3,6-dioxa-1-octanol] | 299.4 ± 4.6 J/K/mol |
| CCCOCCOCCO [2-(2-propoxyethoxy)ethanol] | 326.1 ± 5.1 J/K/mol |
| CCCCOCCOCCO [3,6-dioxa-1-decanol] | 356.5 ± 5.5 J/K/mol |

Same assay, conditions: 291.15 K; 101.33 kPa; Liquid; Large sample (1 g) DSC

| Structure (SMILES) | molar heat capacity at constant pressure |
| --- | --- |
| CCCCCCCCOCCOCCOCCO [2-[2-[2-(octyloxy)ethoxy]ethoxy]ethanol] | 570.4 ± 8.8 J/K/mol |
| CCCOCCO [2-propoxyethanol] | 238.3 ± 3.7 J/K/mol |
| COCCOCCOCCOCCO [3,6,9,12-tetraoxatridecanol] | 447.4 ± 6.9 J/K/mol |
